# Assay results reported in patent US8748433B2, “β3 adrenergic receptor agonists” (Merck Sharp & Dohme Corp., priority 2010, dated 2014).
# Molecular target: T1, β3AR (Rattus norvegicus, UniProt P26255)
# T1 construct: host or cells: live rats (in vivo, bladder)
# Assay: not given
# Conditions: rats, intravenous administration, cystometric studies; cited from earlier work
# T1 sequence (P26255 whole entry): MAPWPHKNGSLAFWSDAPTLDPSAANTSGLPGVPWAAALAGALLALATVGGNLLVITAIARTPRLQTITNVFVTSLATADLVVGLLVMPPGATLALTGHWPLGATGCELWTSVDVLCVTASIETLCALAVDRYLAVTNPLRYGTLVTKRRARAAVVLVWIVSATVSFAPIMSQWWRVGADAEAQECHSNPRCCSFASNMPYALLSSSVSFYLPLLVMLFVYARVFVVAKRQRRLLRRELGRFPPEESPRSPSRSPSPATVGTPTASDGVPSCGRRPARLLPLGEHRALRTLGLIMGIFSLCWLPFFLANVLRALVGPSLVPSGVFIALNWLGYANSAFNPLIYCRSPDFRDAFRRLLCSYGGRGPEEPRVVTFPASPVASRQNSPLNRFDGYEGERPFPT
SMILES,bladder capacity,micturition interval,residual urine volume
C[C@H](Cc1ccc2c(c1)OC(C(=O)[O-])(C(=O)[O-])O2)NC[C@H](O)c1cccc(Cl)c1.[Na+].[Na+] [CL316243],increases bladder capacity,prolongation of micturition interval,without increasing residual urine volume

# Same assay, conditions: rats, intravenous administration; cited from earlier work
row,SMILES,bladder pressure
1,C[C@H](Cc1ccc2c(c1)OC(C(=O)[O-])(C(=O)[O-])O2)NC[C@H](O)c1cccc(Cl)c1.[Na+].[Na+] [CL316243],reduces bladder pressure

# Molecular target: T2, human β3 adrenergic receptor (Homo sapiens, UniProt P13945)
# T2 construct: expressed in transfected cells; host or cells: CHO cells, stably transfected
# T2 sequence (P13945 whole entry): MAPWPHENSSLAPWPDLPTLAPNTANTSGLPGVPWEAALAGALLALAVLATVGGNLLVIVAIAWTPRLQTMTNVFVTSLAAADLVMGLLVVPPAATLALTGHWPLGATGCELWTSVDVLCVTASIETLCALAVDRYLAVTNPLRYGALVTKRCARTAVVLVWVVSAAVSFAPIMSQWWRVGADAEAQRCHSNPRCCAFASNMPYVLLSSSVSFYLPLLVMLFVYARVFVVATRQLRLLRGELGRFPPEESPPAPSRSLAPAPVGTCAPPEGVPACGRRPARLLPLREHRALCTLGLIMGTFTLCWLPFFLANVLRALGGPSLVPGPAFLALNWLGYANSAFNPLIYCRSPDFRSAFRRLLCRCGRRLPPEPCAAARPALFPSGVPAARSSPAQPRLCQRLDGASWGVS
# Assay: Functional assay: cAMP production in CHO cells stably transfected with cloned β3-adrenergic receptor (LANCE TR-FRET)
# Type: cell-based
# Conditions: Table 1, read-out: Human β3 agonist functional activity
# Experimental: cAMP production in response to ligand is measured according to Barton, et al. (1991, Agonist-induced desensitization of D2 dopamine receptors in human Y-79 retinoblastoma cells. Mal. Pharmacol. v3229:650-658) modified as follows. cAMP production is measured using a homogenous time-resolved fluorescence resonance energy transfer immunoassay (LANCE™, Perkin Elmer) according to the manufacture's instructions. Chinese hamster ovary (CHO) cells, stably transfected with the cloned β-adrenergic receptor (β1, β2 or β3) are harvested after 3 days of subculturing. Harvesting of cells is done with Enzyme-free Dissociation. Media (Specialty Media). Cells are then counted and resuspended in assay buffer (Hank's Balanced salt solution supplemented with 5 mM HEPES, 0.1% BSA) containing a phosphodiesterase inhibitor (IBMX, 0.6 mM). The reaction is initiated by mixing 6,000 cells in 6 μL with 6 μL Alexa Fluor labeled cAMP antibody (LANCE™ kit) which is then added to an assay well containing 12 μL of compound (diluted in assay buffer to 2× final concentration). The reaction proceeds for 30 min at room temperature and is terminated by the addition of 24 μL detection buffer (LANCE™ kit). The assay plate is then incubated for 1 h at room temperature and time-resolved fluorescence measured on a Perkin Elmer Envision reader or equivalent. The unknown cAMP level is determined by comparing fluorescence levels to a cAMP standard curve.
# The non-selective, full agonist β-adrenergic ligand isoproterenol is used at all three receptors to determine maximal stimulation. The human β3 adrenergic receptor (AR) selective ligand (S)—N-[4-[2-[[2-hydroxy-3-(4-hydroxyphenoxy)propyl]amino]ethyl]-phenyl]-4-iodobenzenesulfonamide is used as a control in all assays. Isoproterenol is titrated at a final concentration in the assay of 10^-10 M to 10-5 and the selective ligand (S)—N-[4-[2-[[2-hydroxy-3-(4-hydroxyphenoxy)propyl]amino]ethyl]phenyl]-4-iodobenzenesulfonamide is titrated at the β3 receptor at concentration of 10^-10 M to 10^-5 M. Unknown ligands are titrated at all 3β-adrenergic receptor subtypes at a final concentration in the assay of 10^-10 M to 10^-5 M to determine the EC50. The EC50 is defined as the concentration of compound that gives 50% activation of its own maximum. Data are analyzed using Microsoft Excel and Graphpad Prism or an internally developed data analysis software package.
row,SMILES,EC50 [nM]
1,O=c1ccncn1Cc1nc2ccc(C[C@@H]3CC[C@H]([C@H](O)c4ccccc4)N3)cc2[nH]1 [Example 19],101 to 1000
2,OC(c1ccccc1)C1CCC(Cc2ccc3nc(CCCn4cccn4)[nH]c3c2)N1 (centres unmarked) [Example 6],101 to 1000
3,Cc1nn(-c2ccccc2)c(C)c1CCc1nc2ccc(C[C@@H]3CC[C@H]([C@H](O)c4ccccc4)N3)cc2[nH]1 [Example 12],101 to 1000
4,O[C@H](c1ccccc1)[C@H]1CC[C@@H](Cc2ccc3nc(CCn4ncc5ccccc54)[nH]c3c2)N1 [Example 7],11 to 100
5,OC(c1ccccc1)C1CCC(Cc2ccc3nc(CCn4cnc5ccccc54)[nH]c3c2)N1 (centres unmarked) [Example 13],101 to 1000
6,"C[C@@H](c1nc2ccc(CC3CC[C@H]([C@H](O)c4ccccc4)N3)cc2[nH]1)n1cccnc1=O (stereo partly drawn) [Example 1, 1-{(1S)-[6-({(2S,5R)-5-[(R)-Hydroxy(phenyl)methyl]pyrrolidin-2-yl}methyl)-1H-benzimidazol-2-yl]ethyl}pyrimidin-2(1H)-one]",11 to 100
7,CC(c1cscn1)c1nc2ccc(C[C@@H]3CC[C@H]([C@H](O)c4cccnc4)N3)cc2[nH]1 (some centres unmarked) [Example 27],101 to 1000
8,OC(c1ccccc1)C1CCC(Cc2ccc3nc(CCc4cnn(-c5ccccc5)c4)[nH]c3c2)N1 (centres unmarked) [Example 11],101 to 1000
9,CS(=O)(=O)c1ccc(-c2nc3ccc(C[C@@H]4CC[C@H]([C@H](O)c5cccnc5)N4)cc3[nH]2)cc1 [Example 33],101 to 1000
10,O=C(O)c1cccc(-c2nc3ccc(C[C@@H]4CC[C@H]([C@H](O)c5cccnc5)N4)cc3[nH]2)c1 [Example 36],101 to 1000
11,O=C(O)c1ccccc1-c1nc2ccc(C[C@@H]3CC[C@H]([C@H](O)c4cccnc4)N3)cc2[nH]1 [Example 35],101 to 1000
12,O=C1c2ccccc2C(=O)N1Cc1nc2ccc(C[C@@H]3CC[C@H]([C@H](O)c4cccnc4)N3)cc2[nH]1 [Example 31],101 to 1000
13,Cc1nc2c(s1)CCC2c1nc2ccc(C[C@@H]3CC[C@H]([C@H](O)c4ccccc4)N3)cc2[nH]1 (some centres unmarked) [Example 21],11 to 100
14,O[C@H](c1ccccc1)[C@H]1CC[C@@H](Cc2ccc3nc(C4CCc5ccnn54)[nH]c3c2)N1 (some centres unmarked) [Example 16],101 to 1000
15,O[C@H](c1ccccc1)[C@H]1CC[C@@H](Cc2ccc3nc(CCn4ccnc4-c4ccccc4)[nH]c3c2)N1 [Example 10],101 to 1000
16,OC(c1cccnc1)C1CCC(Cc2ccc3nc(-c4ccccc4C(F)(F)F)[nH]c3c2)N1 (centres unmarked) [Example 39],11 to 100
17,Cc1nc(Cc2nc3ccc(C[C@@H]4CC[C@H]([C@H](O)c5ccccc5)N4)cc3[nH]2)cs1 [Example 8],101 to 1000

row,SMILES,EC50 [nM]
1,Cc1cc2ncn(CCc3nc4ccc(C[C@@H]5CC[C@H]([C@H](O)c6ccccc6)N5)cc4[nH]3)c2cc1C [Example 14],101 to 1000
2,Oc1cccc(-c2nc3ccc(C[C@@H]4CC[C@H]([C@H](O)c5cccnc5)N4)cc3[nH]2)n1 [Example 40],1000 to 3000
3,O[C@H](c1ccccc1)[C@H]1CC[C@@H](Cc2ccc3nc(CCn4cncn4)[nH]c3c2)N1 [Example 15],101 to 1000
4,CS(=O)(=O)c1cccc(-c2nc3ccc(C[C@@H]4CC[C@H]([C@H](O)c5cccnc5)N4)cc3[nH]2)c1 [Example 34],11 to 100
5,O[C@H](c1cccnc1)[C@H]1CC[C@@H](Cc2ccc3nc(-c4ccccc4-c4ncc[nH]4)[nH]c3c2)N1 [Example 41],101 to 1000
6,O[C@H](c1cccnc1)[C@H]1CC[C@@H](Cc2ccc3nc(-c4c(F)cccc4F)[nH]c3c2)N1 [Example 38],101 to 1000
7,O=C(O)c1ccc(-c2nc3ccc(C[C@@H]4CC[C@H]([C@H](O)c5cccnc5)N4)cc3[nH]2)cc1 [Example 37],11 to 100
8,O=C1c2ccccc2C(=O)N1Cc1nc2ccc(C[C@@H]3CC[C@H]([C@H](O)c4ccccc4)N3)cc2[nH]1 [Example 17],101 to 1000
9,CS(=O)(=O)c1ccccc1-c1nc2ccc(C[C@@H]3CC[C@H]([C@H](O)c4cccnc4)N3)cc2[nH]1 [Example 32],11 to 100
10,O[C@H](c1cccnc1)[C@H]1CC[C@@H](Cc2ccc3nc(C4CCc5ccnn54)[nH]c3c2)N1 (some centres unmarked) [Example 42],101 to 1000
11,Cc1nc2c(s1)CCC2c1nc2ccc(C[C@@H]3CC[C@H]([C@H](O)c4cccnc4)N3)cc2[nH]1 (some centres unmarked) [Example 29],101 to 1000
12,Cc1nc(Cc2nc3ccc(C[C@@H]4CC[C@H]([C@H](O)c5ccccc5)N4)cc3[nH]2)c(C)s1 [Example 20],101 to 1000
13,OC(c1cccnc1)C1CCC(Cc2ccc3nc(C4CCc5scnc54)[nH]c3c2)N1 (centres unmarked) [Example 26],101 to 1000
14,CCc1nc2ccccc2n1CCc1nc2ccc(C[C@@H]3CC[C@H]([C@H](O)c4ccccc4)N3)cc2[nH]1 [Example 5],101 to 1000
15,O[C@H](c1ccccc1)[C@H]1CC[C@@H](Cc2ccc3nc(C4CCc5scnc54)[nH]c3c2)N1 (some centres unmarked) [Example 24],11 to 100
16,C[C@@H](c1nc2ccc(C[C@@H]3CC[C@H]([C@H](O)c4cccnc4)N3)cc2[nH]1)n1cccnc1=O [Example 28],101 to 1000

# Same assay, conditions: Table 2, read-out: Human β3 agonist functional activity
row,SMILES,EC50 [nM]
1,"Cc1nc2c(s1)CCC2c1nc2ccc(C[C@@H]3CC[C@H]([C@H](O)c4ccccc4)N3)cc2n1C (single isomer, unassigned) [Example 44]",1000 to 3000
2,"Cc1nc2c(s1)CCC2c1nc2ccc(C[C@@H]3CC[C@H]([C@H](O)c4ccccc4)N3)cc2n1C (single isomer, unassigned) [Example 43]",1000 to 3000

# Same assay, conditions: Table 3, read-out: Human β3 agonist functional activity
row,SMILES,EC50 [nM]
1,"Cc1nc2c(s1)CCC2c1nc2cc(C[C@@H]3CC[C@H]([C@H](O)c4ccccc4)N3)ccc2n1C (single isomer, unassigned) [Example 45]",101 to 1000
2,"Cc1nc2c(s1)CCC2c1nc2cc(C[C@@H]3CC[C@H]([C@H](O)c4ccccc4)N3)ccc2n1C (single isomer, unassigned) [Example 46]",1000 to 3000
